From BindingDB's records for doi:10.1038/sj.bjp.0702658 (Universit&Agrove, 1999) come the findings set out here.

pKi: −log10 of the molar value.

The test concerns the target T1, Melatonin receptor type 1B (Homo sapiens, UniProt P49286).
T1 sequence (P49286 whole entry): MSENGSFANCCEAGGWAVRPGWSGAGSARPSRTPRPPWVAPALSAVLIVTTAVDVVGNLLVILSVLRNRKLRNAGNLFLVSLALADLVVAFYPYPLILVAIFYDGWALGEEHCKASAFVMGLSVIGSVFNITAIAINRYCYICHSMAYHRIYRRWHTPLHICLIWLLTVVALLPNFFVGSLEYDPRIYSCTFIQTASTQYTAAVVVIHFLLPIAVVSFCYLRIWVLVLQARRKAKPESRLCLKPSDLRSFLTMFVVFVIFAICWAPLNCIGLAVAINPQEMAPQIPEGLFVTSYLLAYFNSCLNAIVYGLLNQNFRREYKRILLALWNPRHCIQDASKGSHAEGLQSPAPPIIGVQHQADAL
`CC(=O)NCCc1c(Cc2ccccc2)[nH]c2ccccc12` [CAS_117946-91-5] had a pKi of 7.95.

The compound `O=C(NCCc1c(-c2ccccc2)[nH]c2ccccc12)C1CCC1` [N-CBCPT] had a pKi of 7.07.

For `CC(=O)NCCc1c[nH]c2ccccc12` [N-Acetyltryptamine], the negative-log Ki (pKi) is 7.19.

`CC(=O)NCCc1c[nH]c2ccc(O)cc12` [N-Acetyltryptamine,5-Hydroxy] gave a pKi of 6.47.

The compound `COc1ccc2[nH]c(-c3ccccc3)c(CCNC(C)=O)c2c1` [Melatonin,2-Phenyl] gave a negative-log Ki (pKi) of 10.52.
